Measured values as given in ChEMBL document CHEMBL5257045, “Antiparasitic Activity of Two Natural Terpenes from Salvia cuspidata against Leishmania amazonensis” (2023).
“And” between values parts separate entries of the source, which are not always exact repeats. Identical values can stand only once. The source made the active and inactive calls. No cut-off for these calls is given here.

How the values were obtained:
Leishmania amazonensis [1] = test: Antileishmanial activity against Leishmania amazonensis MHOM/VE/84/MEL promastigotes assessed as parasite mortality at 38.4 uM measured after 1 day by dye exclusion method (reference value: 14.5 +/- 3.5); format: functional; conditions: 24 h
Leishmania amazonensis [2] = test: Antileishmanial activity against Leishmania amazonensis MHOM/VE/84/MEL promastigotes assessed as parasite mortality at 38.4 uM measured after 2 day by dye exclusion method (reference value: 11.6 +/- 3.3); format: functional; conditions: 48 h
Leishmania amazonensis [3] = test: Antileishmanial activity against Leishmania amazonensis MHOM/VE/84/MEL promastigotes assessed as parasite mortality at 4.3 uM measured after 1 day by dye exclusion method (reference value: 14.5 +/- 3.5); format: functional; conditions: 24 h
Leishmania amazonensis [4] = test: Induction of ROS generation in Leishmania amazonensis promastigotes at 4.3 to 29.2 uM incubated for 48 hrs followed by probe addition measured after 1 hr by H2DCFDA probe based fluorometry analysis; format: functional, organism-based; conditions: dose 4.3-29.2 µM, time 49.0 hrs
Leishmania amazonensis [5] = test: Induction of ROS generation in Leishmania amazonensis promastigotes assessed as reduction in mitochondrial activity at 4.3 to 29.2 uM incubated for 48 hrs by MTT assay; format: functional, organism-based; conditions: dose 4.3-29.2 µM
Leishmania amazonensis [6] = test: Antileishmanial activity against Leishmania amazonensis MHOM/VE/84/MEL promastigotes assessed as parasite mortality at 14.3 uM measured after 1 day by dye exclusion method (reference value: 14.5 +/- 3.5); format: functional; conditions: 24 h
Leishmania amazonensis [7] = test: Antileishmanial activity against Leishmania amazonensis promastigotes infected in BALB/c mouse assessed as reduction of IgG level at 1 mg/kg per day administered once a week for 4 weeks measured at 10 week by ELISA assay; format: functional, organism-based
Leishmania amazonensis [8] = test: Antileishmanial activity against Leishmania amazonensis promastigotes infected in BALB/c mouse assessed as reduction of splenic index at 1 mg/kg per day administered once a week for 4 weeks measured at 10 week; format: functional, organism-based
Leishmania amazonensis [9] = test: Antileishmanial activity against Leishmania amazonensis MHOM/VE/84/MEL promastigotes assessed as parasite mortality at 29.2 uM measured after 2 day by dye exclusion method (reference value: 11.6 +/- 3.3); format: functional; conditions: 48 h
Leishmania amazonensis [10] = test: Antileishmanial activity against Leishmania amazonensis promastigotes infected in BALB/c mouse assessed as reduction in RHLF lesion size at 1 mg/kg per day administered once a week for 4 weeks measured at 10 week; format: functional, organism-based
Leishmania amazonensis [11] = test: Antileishmanial activity against Leishmania amazonensis promastigotes infected in BALB/c mouse assessed as reduction of parasite burden at 1 mg/kg per day administered once a week for 4 weeks measured at 10 week by limit dilution assay; format: functional, organism-based
Leishmania amazonensis [12] = test: Antileishmanial activity against Leishmania amazonensis MHOM/VE/84/MEL promastigotes assessed as parasite mortality at 14.3 uM measured after 2 day by dye exclusion method (reference value: 11.6 +/- 3.3); format: functional; conditions: 48 h
Leishmania amazonensis [13] = test: Antileishmanial activity against Leishmania amazonensis MHOM/VE/84/MEL promastigotes assessed as parasite mortality at 29.2 uM measured after 1 day by dye exclusion method (reference value: 14.5 +/- 3.5); format: functional; conditions: 24 h
Leishmania amazonensis [14] = test: Induction of ROS generation in Leishmania amazonensis promastigotes assessed as reduction in endogenous GSH level at 4.3 to 29.2 uM incubated for 3 hrs by absorbance based analysis; format: functional, organism-based; conditions: dose 4.3-29.2 µM
Leishmania amazonensis [15] = test: Antileishmanial activity against Leishmania amazonensis MHOM/VE/84/MEL promastigotes assessed as parasite mortality at 4.3 uM measured after 2 day by dye exclusion method (reference value: 11.6 +/- 3.3); format: functional; conditions: 48 h
Leishmania amazonensis [16] = test: Antileishmanial activity against Leishmania amazonensis promastigotes infected in BALB/c mouse assessed as reduction of IgG1 level at 1 mg/kg per day administered once a week for 4 weeks measured at 10 week by ELISA assay; format: functional, organism-based
Leishmania amazonensis [17] = test: Antileishmanial activity against Leishmania amazonensis promastigotes infected in BALB/c mouse assessed as reduction of IgG1 level at 400 mg/kg per day, ip administered for 30 days measured at 10 week by ELISA assay; format: functional, organism-based; conditions: time 30.0 day
Leishmania amazonensis [18] = test: Antileishmanial activity against Leishmania amazonensis promastigotes infected in BALB/c mouse assessed as reduction of IgG level at 400 mg/kg per day, ip administered for 30 days measured at 10 week by ELISA assay; format: functional, organism-based; conditions: time 30.0 day
Leishmania amazonensis [19] = test: Antileishmanial activity against Leishmania amazonensis promastigotes infected in BALB/c mouse assessed as reduction of splenic index at 400 mg/kg per day, ip administered for 30 days measured at 10 week; format: functional, organism-based; conditions: time 30.0 day
Leishmania amazonensis [20] = test: Antileishmanial activity against Leishmania amazonensis promastigotes infected in BALB/c mouse assessed as wound closure at 400 mg/kg per day, ip administered for 30 days; format: functional, organism-based; conditions: time 30.0 day
Leishmania amazonensis [21] = test: Antileishmanial activity against Leishmania amazonensis promastigotes infected in BALB/c mouse assessed as reduction of parasite burden at 400 mg/kg per day, ip administered for 30 days measured at 10 week by limit dilution assay; format: functional, organism-based; conditions: time 30.0 day
Leishmania amazonensis [22] = test: Antileishmanial activity against Leishmania amazonensis promastigotes infected in BALB/c mouse assessed as reduction in RHLF lesion size at 400 mg/kg per day, ip administered for 30 days; format: functional, organism-based; conditions: time 30.0 day
Leishmania donovani = test: Antileishmanial activity against Leishmania donovani MHOM/IN/83/AG83 promastigotes infected in BALB/c mouse assessed as reduction of parasite burden in spleen at 5 to 10 mg/kg per day; format: functional, organism-based; conditions: dose 5-10 mg/kg

Compound | mortality (Leishmania amazonensis [3]) | Activity (Leishmania amazonensis [4]) | Activity (Leishmania amazonensis [5]) | mortality at 14.3 µM (Leishmania amazonensis [6]) | Activity (Leishmania amazonensis [7]) | Activity (Leishmania amazonensis [8]) | mortality at 29.2 µM (Leishmania amazonensis [9]) | Activity (Leishmania amazonensis [10]) | Activity (Leishmania amazonensis [11]) | mortality at 14.3 µM (Leishmania amazonensis [12]) | mortality at 29.2 µM (Leishmania amazonensis [13]) | Activity (Leishmania amazonensis [14]) | mortality at 4.3 µM (Leishmania amazonensis [15]) | Activity (Leishmania amazonensis [16]) | other results
CC(=O)N1CCN(c2ccc(OCC3COC(Cn4ccnc4)(c4ccc(Cl)cc4Cl)O3)cc2)CC1 (configuration not stated) [KETOCONAZOLE] | – | – | – | – | – | – | – | – | – | – | – | – | – | – | mortality at 38.4 µM (Leishmania amazonensis [1]): 48.5%; mortality at 38.4 µM (Leishmania amazonensis [2]): 79.4%
CC(C)C1=C(O)C(=O)C2=C(C=C[C@H]3[C@]4(CCC[C@]3(C)C(=O)O4)C2)C1=O | 10% and 26.5% | Active | Active | 47% | Active | Active | 77.5% | Active | Active | 51.5% | 65% | Active | 26.5% | Active | –
MEGLUMINE ANTIMONATE | – | – | – | – | – | – | – | – | – | – | – | – | – | – | Activity (Leishmania amazonensis [17]): Active; Activity (Leishmania amazonensis [18]): Active; Activity (Leishmania amazonensis [19]): Active; Activity (Leishmania amazonensis [20]): inactive; Activity (Leishmania amazonensis [21]): Active; Activity (Leishmania amazonensis [22]): Active
C[C@@H]1CC[C@H]2[C@@H](C)C(=O)O[C@@H]3O[C@@]4(C)CC[C@@H]1[C@]32OO4 | – | – | – | – | – | – | – | – | – | – | – | – | – | – | Activity (Leishmania donovani): Active
C[C@@]12CCC[C@]3(COC1=O)CC1=C(C=C[C@@H]32)C(=O)C=C(O)C1=O | 33.5% and 87.5% | Active | Active | 55% | Active | Active | 98.5% | Active | Active | 92% | 96.5% | Active | 87.5% | Active | –
